Laboratory results reported in publication PMC11833248, “Evolutionary and Functional Analysis of Monoamine Oxidase F: A Novel Member of the Monoamine Oxidase Gene Family” (Genome Biology and Evolution, 2025).
Where two headings read alike, the source gives them in different places.

What was measured:
IPT-MAO A/B [1] = test system: T1, IPT-MAO A/B; test: HRP-coupled spectrophotometric assay of H2O2, […] nm; type: biochemical, Megalops cyprinoides; conditions: 25 °C, 50 mM Hepes/NaOH pH 7.5, 0.5% v/v reduced Triton X-100; read-out: IPT-MAO A/B / K M / Human MAOB
T1 construct: full length 522 residues (borders given for the mammalian construct); N-terminal 6xHis; Pichia pastoris KM71; detergent-solubilized, FOS-choline-12

IPT-MAO A/B [2] = conditions: read-out: IPT-MAO A/B / K M / Human MAOB; 25 °C, 50 mM Hepes/NaOH pH 7.5, 0.5% v/v reduced Triton X-100

NCCc1ccc(O)cc1 [Tyramine]
Km (IPT-MAO A/B [1]): 200 ± 40 µM

NCCc1c[nH]c2ccc(O)cc12 [Serotonin]
Km (IPT-MAO A/B [2]): 100 ± 10 µM

NCc1ccccc1 [Benzylamine]
Km (IPT-MAO A/B [1]): 50 ± 10 µM

NCCc1ccc(O)c(O)c1 [Dopamine]
Km (IPT-MAO A/B [2]): 300 ± 30 µM

NCCc1ccccc1 [Phenethylamine]
Km (IPT-MAO A/B [1]): 70 ± 10 µM

NCCC(=O)c1ccccc1N [Kynuramine]
Km (IPT-MAO A/B [1]): 30 ± 4 µM
